How the values were obtained:
Estrogen receptor = target: T1, Estrogen receptor (Homo sapiens, UniProt P03372); experiment: Induction of Estrogen receptor degradation in wildtype human MCF7 cells assessed as reduction in estrogen receptor level incubated for 24 hrs by Western blot analysis; type: cell-based
T1 sequence (P03372 whole entry): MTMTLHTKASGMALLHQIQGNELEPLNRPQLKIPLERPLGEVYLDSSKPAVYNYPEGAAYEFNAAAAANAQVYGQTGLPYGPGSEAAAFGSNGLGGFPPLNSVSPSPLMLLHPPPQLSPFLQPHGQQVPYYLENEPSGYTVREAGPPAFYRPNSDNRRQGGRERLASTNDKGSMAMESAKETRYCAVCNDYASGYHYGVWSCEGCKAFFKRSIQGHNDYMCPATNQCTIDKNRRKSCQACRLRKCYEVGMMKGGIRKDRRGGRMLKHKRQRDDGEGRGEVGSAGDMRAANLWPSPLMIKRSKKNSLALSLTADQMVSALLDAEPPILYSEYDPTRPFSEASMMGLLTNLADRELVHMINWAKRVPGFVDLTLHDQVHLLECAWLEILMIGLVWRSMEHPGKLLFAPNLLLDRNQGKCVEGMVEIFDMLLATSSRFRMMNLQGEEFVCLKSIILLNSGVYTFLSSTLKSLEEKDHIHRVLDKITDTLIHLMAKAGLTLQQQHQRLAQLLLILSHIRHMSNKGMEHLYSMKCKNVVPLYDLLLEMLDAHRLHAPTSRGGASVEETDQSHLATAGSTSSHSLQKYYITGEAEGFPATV

[1] = Metabolic stability in human liver microsomes assessed as parent compound remaining incubated for 60 mins in presence of NADPH by LC-MS/MS analysis; type: ADME, Microsome; settings: read-out: Stability
[2] = Metabolic stability in rat liver microsomes assessed as parent compound remaining incubated for 60 mins in presence of NADPH by LC-MS/MS analysis; type: ADME, Microsome; settings: read-out: Stability
MCF7 = experiment: Antiproliferative activity against wildtype human MCF7 cells assessed as inhibition of cell proliferation incubated for 6 days in presence of beta-estradiol by CellTiter-Glo assay; type: functional, cell-based; settings: MCF7, 144 h

SMILES | DC50 (Estrogen receptor) [nM] | remaining at 1 h [1] [%] | remaining at 1 h [2] [%] | IC50 (MCF7) [nM]
C[C@@H]1Cc2c([nH]c3ccccc23)[C@@H](c2c(F)cc(NC3CN(CCOCCCC(F)(F)C(F)(F)F)C3)cc2F)N1CC(F)(F)CO | 3.8 |  |  | 
C[C@@H]1Cc2c([nH]c3ccccc23)[C@@H](c2c(F)cc(NC3CN(CCC[S+]([O-])CCCC(F)(F)C(F)(F)F)C3)cc2F)N1CC(F)(F)F (stereo partly specified) | 1.7 | 57.4 | 93.7 | 2.7
C[C@@H]1Cc2c([nH]c3ccccc23)[C@@H](c2c(F)cc(NC3CN(CCC[S+]([O-])CCCC(F)(F)C(F)(F)F)C3)cc2F)N1CC(F)(F)CO (stereo partly specified) | 1.2 | 60.1 | 79.3 | 0.9
C[C@@H]1Cc2c([nH]c3ccccc23)[C@@H](c2c(F)cc(NC3CN(CC[S+]([O-])CCCC(F)(F)C(F)(F)F)C3)cc2F)N1CC(F)(F)F (stereo partly specified) |  | 43 | 71.6 | 
